Experimental data from the kinase profiling compilation of Christmann-Franck et al. (2016).

Experiments:
Assay in all cases: radiometric filter-binding kinase assay, Kinase HotSpot
Details in all cases: compound 0.5 µM; ATP 10 µM
[1] = molecular target: NTRK3 (human) (UniProt Q16288)
[2] = molecular target: STK11 (human) (UniProt Q15831)
[3] = molecular target: PLK3 (human) (UniProt Q9H4B4)
[4] = molecular target: MARK4 (human) (UniProt Q96L34)
[5] = molecular target: HIPK3 (human) (UniProt Q9H422)
[6] = molecular target: ERBB2 (human) (UniProt P04626)
[7] = molecular target: MAPK8 (human) (UniProt P45983)
[8] = molecular target: JAK3 JH1 JH2 (human) (UniProt P52333)
[9] = molecular target: AURKB (human) (UniProt Q96GD4)
[10] = molecular target: EPHA4 (human) (UniProt P54764)
[11] = molecular target: EPHB2 (human) (UniProt P29323)
[12] = molecular target: AKT2 (human) (UniProt P31751)
[13] = molecular target: FER (human) (UniProt P16591)
[14] = molecular target: STK3 (human) (UniProt Q13188)
[15] = molecular target: AXL (human) (UniProt P30530)
[16] = molecular target: CSNK1G2 (human) (UniProt P78368)
[17] = molecular target: KIT (human) (UniProt P10721)
[18] = molecular target: PRKCI (human) (UniProt P41743)
[19] = molecular target: RPS6KA2 KD1 KD2 (human) (UniProt Q15349)
[20] = molecular target: CDK7 CCNH MNAT1 (human) (UniProt P50613+P51948+P51946)
[21] = molecular target: PIM3 (human) (UniProt Q86V86)
[22] = molecular target: MAP3K14 (human) (UniProt Q99558)
[23] = molecular target: RPS6KA1 KD1 KD2 (human) (UniProt Q15418)
[24] = molecular target: NEK1 (human) (UniProt Q96PY6)
[25] = molecular target: STK4 (human) (UniProt Q13043)
[26] = molecular target: ITK (human) (UniProt Q08881)
[27] = molecular target: IGF1R (human) (UniProt P08069)
[28] = molecular target: CSF1R (human) (UniProt P07333)
[29] = molecular target: PRKCB2 (human) (UniProt P05771)
[30] = molecular target: PAK7 (human) (UniProt Q9P286)
[31] = molecular target: PAK6 (human) (UniProt Q9NQU5)
[32] = molecular target: MST4 (human) (UniProt Q9P289)
[33] = molecular target: MET (human) (UniProt P08581)
[34] = molecular target: DYRK2 (human) (UniProt Q92630)
[35] = molecular target: PDGFRA (human) (UniProt P16234)
[36] = molecular target: MATK (human) (UniProt P42679)
[37] = molecular target: PRKG2 (human) (UniProt Q13237)
[38] = molecular target: MAPKAPK5 (human) (UniProt Q8IW41)
[39] = molecular target: CAMK2D (human) (UniProt Q13557)
[40] = molecular target: PIM1 (human) (UniProt P11309)
[41] = molecular target: PRKCB1 (human) (UniProt P05771)
[42] = molecular target: PKN2 (human) (UniProt Q16513)

Chain of RPS6KA1 KD1 KD2 (human) (Q15418 whole entry, looked up): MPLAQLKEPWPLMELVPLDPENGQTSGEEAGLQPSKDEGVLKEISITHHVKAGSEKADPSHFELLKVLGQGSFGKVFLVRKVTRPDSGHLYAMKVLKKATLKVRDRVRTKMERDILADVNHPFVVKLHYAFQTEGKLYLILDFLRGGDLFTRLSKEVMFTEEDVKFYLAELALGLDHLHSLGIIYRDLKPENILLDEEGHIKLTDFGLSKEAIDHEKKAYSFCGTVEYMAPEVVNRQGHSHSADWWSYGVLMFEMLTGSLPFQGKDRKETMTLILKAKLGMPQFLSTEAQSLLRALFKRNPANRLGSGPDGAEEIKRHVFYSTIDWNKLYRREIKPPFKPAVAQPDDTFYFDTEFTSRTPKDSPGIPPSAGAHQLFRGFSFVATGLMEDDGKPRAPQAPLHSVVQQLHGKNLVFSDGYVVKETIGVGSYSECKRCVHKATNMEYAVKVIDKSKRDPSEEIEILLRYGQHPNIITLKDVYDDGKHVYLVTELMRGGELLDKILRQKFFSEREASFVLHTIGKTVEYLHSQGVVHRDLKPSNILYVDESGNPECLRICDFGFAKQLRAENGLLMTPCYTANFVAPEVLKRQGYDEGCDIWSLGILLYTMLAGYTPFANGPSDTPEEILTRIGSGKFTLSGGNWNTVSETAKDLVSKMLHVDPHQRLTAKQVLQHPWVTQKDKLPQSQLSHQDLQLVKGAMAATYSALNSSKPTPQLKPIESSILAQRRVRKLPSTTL
Chain of STK11 (human) (Q15831 whole entry, looked up): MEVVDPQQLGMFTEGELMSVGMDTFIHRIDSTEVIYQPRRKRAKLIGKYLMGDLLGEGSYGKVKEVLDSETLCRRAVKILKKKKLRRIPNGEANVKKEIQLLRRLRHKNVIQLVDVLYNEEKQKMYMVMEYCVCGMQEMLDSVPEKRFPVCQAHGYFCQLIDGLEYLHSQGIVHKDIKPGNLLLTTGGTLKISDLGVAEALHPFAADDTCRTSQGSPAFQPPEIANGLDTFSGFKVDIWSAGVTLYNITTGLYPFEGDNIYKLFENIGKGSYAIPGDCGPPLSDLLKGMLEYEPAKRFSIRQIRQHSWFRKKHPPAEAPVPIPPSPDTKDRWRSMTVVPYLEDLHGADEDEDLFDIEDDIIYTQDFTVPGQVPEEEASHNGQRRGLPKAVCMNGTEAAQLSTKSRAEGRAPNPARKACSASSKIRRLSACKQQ
Chain of PRKCB2 (human) (P05771 whole entry, looked up): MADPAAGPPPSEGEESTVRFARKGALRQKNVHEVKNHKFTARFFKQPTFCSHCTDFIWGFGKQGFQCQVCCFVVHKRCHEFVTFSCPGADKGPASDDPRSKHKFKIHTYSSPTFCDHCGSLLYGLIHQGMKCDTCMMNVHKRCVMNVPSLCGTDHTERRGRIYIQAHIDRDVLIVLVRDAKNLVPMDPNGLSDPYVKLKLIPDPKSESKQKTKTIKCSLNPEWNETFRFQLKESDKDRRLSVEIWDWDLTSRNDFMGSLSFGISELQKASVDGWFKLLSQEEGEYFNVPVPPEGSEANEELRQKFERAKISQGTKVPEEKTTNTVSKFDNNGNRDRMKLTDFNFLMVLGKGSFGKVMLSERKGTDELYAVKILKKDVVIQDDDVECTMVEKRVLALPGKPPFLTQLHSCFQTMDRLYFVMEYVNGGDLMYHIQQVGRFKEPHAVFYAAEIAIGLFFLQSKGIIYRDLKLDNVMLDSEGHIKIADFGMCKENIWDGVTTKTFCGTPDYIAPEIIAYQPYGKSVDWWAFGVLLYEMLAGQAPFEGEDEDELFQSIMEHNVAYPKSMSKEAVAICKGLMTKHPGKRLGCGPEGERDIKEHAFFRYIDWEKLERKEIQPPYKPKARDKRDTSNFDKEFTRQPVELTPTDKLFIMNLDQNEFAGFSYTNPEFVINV
Chain of PRKCB1 (human) (P05771 whole entry, looked up): as above
Chain of CDK7 CCNH MNAT1 (human) (P50613 whole entry, looked up): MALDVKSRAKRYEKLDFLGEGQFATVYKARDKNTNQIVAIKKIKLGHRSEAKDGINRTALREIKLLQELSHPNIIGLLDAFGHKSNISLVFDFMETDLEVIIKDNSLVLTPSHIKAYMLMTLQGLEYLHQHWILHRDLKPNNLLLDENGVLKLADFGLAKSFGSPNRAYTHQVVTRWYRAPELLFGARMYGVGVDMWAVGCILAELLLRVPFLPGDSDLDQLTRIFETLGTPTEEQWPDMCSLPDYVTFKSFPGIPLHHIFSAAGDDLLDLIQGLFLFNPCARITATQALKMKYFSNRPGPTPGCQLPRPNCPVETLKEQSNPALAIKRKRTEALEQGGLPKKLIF
Chain of CDK7 CCNH MNAT1 (human) (P51946 whole entry, looked up): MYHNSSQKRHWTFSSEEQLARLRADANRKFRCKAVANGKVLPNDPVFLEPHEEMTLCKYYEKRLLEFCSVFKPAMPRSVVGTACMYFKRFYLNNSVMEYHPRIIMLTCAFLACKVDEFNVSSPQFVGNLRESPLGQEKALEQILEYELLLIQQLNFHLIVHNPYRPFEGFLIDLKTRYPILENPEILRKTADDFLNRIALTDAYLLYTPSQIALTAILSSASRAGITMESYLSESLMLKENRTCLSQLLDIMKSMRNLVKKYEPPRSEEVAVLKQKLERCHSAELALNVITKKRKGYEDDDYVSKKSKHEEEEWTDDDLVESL
Chain of CDK7 CCNH MNAT1 (human) (P51948 whole entry, looked up): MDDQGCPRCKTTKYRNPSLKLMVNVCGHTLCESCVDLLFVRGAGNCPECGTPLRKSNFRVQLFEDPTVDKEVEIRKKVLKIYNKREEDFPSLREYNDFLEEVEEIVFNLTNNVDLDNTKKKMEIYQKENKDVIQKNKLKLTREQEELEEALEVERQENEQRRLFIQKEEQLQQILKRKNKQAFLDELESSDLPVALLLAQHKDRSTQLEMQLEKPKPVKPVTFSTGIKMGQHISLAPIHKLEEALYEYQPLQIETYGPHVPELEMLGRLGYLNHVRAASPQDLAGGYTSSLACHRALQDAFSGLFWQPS
Chain of ERBB2 (human) (P04626 whole entry, looked up): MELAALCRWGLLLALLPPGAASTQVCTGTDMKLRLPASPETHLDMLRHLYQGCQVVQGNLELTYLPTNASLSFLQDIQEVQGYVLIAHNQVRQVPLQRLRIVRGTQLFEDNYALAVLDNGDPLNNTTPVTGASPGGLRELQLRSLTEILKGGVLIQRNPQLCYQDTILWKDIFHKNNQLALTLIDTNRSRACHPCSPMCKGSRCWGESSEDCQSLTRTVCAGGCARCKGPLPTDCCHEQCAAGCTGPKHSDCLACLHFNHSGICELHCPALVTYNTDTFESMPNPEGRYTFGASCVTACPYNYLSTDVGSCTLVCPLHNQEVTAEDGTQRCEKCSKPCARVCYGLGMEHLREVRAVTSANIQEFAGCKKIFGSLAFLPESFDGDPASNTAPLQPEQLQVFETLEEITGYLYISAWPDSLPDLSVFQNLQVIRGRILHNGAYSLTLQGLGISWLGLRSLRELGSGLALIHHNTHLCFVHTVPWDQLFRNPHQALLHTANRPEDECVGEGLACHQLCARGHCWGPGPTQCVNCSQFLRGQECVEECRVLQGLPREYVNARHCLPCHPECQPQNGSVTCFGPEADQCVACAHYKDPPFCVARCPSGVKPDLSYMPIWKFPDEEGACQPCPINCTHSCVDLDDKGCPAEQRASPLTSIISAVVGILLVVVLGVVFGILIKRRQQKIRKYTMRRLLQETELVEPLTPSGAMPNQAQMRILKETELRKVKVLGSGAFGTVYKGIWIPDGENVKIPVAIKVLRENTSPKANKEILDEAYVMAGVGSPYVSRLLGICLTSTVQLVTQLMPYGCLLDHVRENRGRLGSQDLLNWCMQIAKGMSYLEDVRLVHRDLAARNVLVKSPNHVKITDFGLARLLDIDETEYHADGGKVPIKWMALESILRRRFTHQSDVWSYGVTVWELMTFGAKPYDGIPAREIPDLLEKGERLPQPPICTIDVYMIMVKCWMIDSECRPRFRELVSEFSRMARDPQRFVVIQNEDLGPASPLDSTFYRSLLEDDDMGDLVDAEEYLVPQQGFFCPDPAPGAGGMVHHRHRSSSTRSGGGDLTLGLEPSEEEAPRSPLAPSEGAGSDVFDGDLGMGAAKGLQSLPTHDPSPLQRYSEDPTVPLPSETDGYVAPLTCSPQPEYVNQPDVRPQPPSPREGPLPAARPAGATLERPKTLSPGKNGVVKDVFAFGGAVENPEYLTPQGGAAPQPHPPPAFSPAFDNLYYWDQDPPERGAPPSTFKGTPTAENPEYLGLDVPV

CCc1nc(-c2ccc(OC)cc2)[nH]c1-c1ccncc1
residual activity [1]: 103% | residual activity [2]: 89.5% | residual activity [3]: 96.9% | residual activity [4]: 96.4% | residual activity [5]: 106% | residual activity [6]: 98.9% | residual activity [7]: 98.9% | residual activity [8]: 96.1% | residual activity [9]: 101% | residual activity [10]: 105% | residual activity [11]: 111% | residual activity [12]: 100% | residual activity [13]: 96.4% | residual activity [14]: 104% | residual activity [15]: 99.9% | residual activity [16]: 97.7% | residual activity [17]: 92.7% | residual activity [18]: 101% | residual activity [19]: 99.1% | residual activity [20]: 97.3% | residual activity [21]: 112% | residual activity [22]: 118% | residual activity [23]: 106% | residual activity [24]: 98.9% | residual activity [25]: 106% | residual activity [26]: 97.4% | residual activity [27]: 99.5% | residual activity [28]: 100% | residual activity [29]: 109% | residual activity [30]: 101% | residual activity [31]: 102% | residual activity [32]: 106% | residual activity [33]: 97.7% | residual activity [34]: 85.8% | residual activity [35]: 96.3% | residual activity [36]: 94.1% | residual activity [37]: 91.9% | residual activity [38]: 95.2% | residual activity [39]: 96.4% | residual activity [40]: 104% | residual activity [41]: 104% | residual activity [42]: 95.7%
